Experimental data reported in patent US20250281461A1 (The Board of Supervisors of Louisiana State University and …, priority 2021, published 2025).

Settings: mouse, in vivo

Cc1ccc(NC(=O)c2ccc(CN3CCN(C)CC3)cc2)cc1Nc1nccc(-c2cccnc2)n1 [Imatinib]
no significant changes: serum ALT levels | serum AST levels | serum BUN levels

COC(=O)Nc1nc2ccc(C(=O)c3ccccc3)cc2[nH]1 [Mebendazole]
no significant changes: serum ALT levels | serum AST levels | serum BUN levels
